Assay results from ChEMBL document CHEMBL2074509, “Uptake and efflux of the peptidic delta-opioid receptor agonist” (Neurosci Lett, 2001).

Biological target: ATP-dependent translocase ABCB1 (Mus musculus, UniProt P21447)
Experiment: TP_TRANSPORTER: in situ brain perfusion in mdr1a(-/-) mouse
Assay type: functional, organism-based
Conditions: in vivo

ATP-dependent translocase ABCB1, sequence (P21447 whole entry, the tested form may be a part): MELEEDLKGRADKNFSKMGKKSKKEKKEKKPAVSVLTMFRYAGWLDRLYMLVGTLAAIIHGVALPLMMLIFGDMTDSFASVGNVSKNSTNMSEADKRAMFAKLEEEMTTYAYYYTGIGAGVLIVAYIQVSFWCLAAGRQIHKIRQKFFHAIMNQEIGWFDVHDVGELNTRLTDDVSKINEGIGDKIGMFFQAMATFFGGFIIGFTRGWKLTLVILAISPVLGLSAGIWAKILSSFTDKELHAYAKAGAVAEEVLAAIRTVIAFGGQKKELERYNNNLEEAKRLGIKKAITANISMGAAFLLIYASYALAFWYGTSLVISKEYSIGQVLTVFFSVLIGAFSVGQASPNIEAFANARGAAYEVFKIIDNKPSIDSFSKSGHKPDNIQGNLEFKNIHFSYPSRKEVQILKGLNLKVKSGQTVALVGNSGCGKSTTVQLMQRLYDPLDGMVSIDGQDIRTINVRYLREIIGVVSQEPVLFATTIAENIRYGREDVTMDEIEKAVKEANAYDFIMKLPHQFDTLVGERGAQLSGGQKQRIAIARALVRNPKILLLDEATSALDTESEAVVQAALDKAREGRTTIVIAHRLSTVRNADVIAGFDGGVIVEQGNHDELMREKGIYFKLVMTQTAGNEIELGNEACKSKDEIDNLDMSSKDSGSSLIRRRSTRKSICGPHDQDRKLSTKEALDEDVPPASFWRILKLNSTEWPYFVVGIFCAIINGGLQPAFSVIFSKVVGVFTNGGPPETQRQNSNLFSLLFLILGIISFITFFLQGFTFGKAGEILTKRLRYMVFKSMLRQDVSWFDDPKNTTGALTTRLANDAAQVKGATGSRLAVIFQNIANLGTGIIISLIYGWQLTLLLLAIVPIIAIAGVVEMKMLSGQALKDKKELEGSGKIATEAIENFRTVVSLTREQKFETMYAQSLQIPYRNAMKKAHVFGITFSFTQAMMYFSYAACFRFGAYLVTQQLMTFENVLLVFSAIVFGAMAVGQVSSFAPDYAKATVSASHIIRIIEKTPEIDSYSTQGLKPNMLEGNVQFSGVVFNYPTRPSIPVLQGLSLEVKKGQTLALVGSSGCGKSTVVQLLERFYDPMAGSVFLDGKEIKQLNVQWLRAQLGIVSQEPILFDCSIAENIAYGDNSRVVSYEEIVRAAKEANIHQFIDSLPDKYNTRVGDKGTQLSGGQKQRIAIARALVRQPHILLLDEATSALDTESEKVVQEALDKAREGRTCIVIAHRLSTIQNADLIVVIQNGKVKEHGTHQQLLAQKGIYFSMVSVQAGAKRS

Structure (SMILES): CC1(C)SSC(C)(C)[C@@H](NC(=O)[C@@H](N)Cc2ccc(O)cc2)C(=O)NCC(=O)N[C@@H](Cc2ccccc2)C(=O)N[C@H]1C(=O)O
- Activity: substrate [+]
